The values below come from patent US20150175599A1, “FAAH Inhibitors” (Ironwood Pharmaceuticals, Inc., priority 2010, published 2015).

Where only a bound is given, the exact number is not on record here.

In assay [1] the target is T1, FAAH (Homo sapiens, UniProt O00519).
T1 construct: Reactions were initiated by adding 12.5 μg of brain microsome; tissue ABS, Inc; host or cells: human brain cerebral cortex, membrane/microsome fraction pooled from 3 donors
T1 sequence (O00519 1-579): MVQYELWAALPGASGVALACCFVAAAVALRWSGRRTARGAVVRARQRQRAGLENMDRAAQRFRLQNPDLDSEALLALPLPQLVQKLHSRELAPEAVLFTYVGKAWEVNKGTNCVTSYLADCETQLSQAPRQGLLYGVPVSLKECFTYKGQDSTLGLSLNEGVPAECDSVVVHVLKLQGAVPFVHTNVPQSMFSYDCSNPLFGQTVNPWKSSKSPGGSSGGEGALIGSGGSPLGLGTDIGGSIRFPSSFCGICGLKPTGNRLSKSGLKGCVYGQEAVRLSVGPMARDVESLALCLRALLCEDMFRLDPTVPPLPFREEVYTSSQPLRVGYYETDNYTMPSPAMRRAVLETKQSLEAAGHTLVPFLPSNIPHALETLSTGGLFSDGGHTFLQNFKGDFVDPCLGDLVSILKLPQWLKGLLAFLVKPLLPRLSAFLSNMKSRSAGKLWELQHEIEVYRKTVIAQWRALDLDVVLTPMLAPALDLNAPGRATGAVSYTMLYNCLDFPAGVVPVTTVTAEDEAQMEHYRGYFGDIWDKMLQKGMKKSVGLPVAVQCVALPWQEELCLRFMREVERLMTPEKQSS
The experiment in a line: FAAH inhibition, human brain membrane homogenate assay. Conditions: human brain homogenate; average activity; read-out: Human brain Extract FAAH IC50. The format is biochemical.

Assay [2] has as its target T2, FAAH (Rattus norvegicus, UniProt P97612).
T2 construct: For the assay of FAAH activity in rat brain membrane (RBM) homogenates; tissue Charles River (animals); host or cells: rat whole brain, membrane fraction
T2 sequence (P97612 1-579): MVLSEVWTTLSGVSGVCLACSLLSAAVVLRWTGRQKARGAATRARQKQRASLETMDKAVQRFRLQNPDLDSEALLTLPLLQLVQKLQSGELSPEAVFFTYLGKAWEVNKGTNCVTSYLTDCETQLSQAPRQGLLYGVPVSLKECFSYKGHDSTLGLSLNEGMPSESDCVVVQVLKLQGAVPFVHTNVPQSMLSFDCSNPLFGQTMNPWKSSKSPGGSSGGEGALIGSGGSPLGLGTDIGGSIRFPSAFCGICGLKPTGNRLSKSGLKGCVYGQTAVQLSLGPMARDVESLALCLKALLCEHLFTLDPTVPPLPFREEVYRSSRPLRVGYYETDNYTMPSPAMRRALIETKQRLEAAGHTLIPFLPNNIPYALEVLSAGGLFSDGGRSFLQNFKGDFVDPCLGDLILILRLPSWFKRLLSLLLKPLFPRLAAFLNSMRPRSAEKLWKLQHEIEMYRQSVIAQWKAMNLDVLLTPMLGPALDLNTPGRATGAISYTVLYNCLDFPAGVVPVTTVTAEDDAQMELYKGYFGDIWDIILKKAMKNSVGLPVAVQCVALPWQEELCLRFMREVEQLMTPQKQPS
The experiment in a line: FAAH inhibition, rat brain membrane homogenate assay. In kind it is biochemical. The following applies: rat brain homogenate; average activity; read-out: Rat Brain Extract FAAH IC50. The procedure, abridged: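 Membranes from female CD rat brain (Tris pH 7.4/EDTA/MgCl2 resuspension), 7 μg protein, incubated 10 min at 37 °C with [3H]anandamide plus […] unlabelled AEA, 1 mg/mL fatty acid-free BSA, Tris-HCl pH 6.5, 1 mM EDTA, 1% DMSO. [3H]ethanolamine separated by chloroform/methanol extraction or charcoal filtration, scintillation-counted; IC50 derived.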

Usually IC50 stands for the midpoint of a concentration-inhibition curve. In the case of `COc1cc(NC(=O)C(=O)c2c(C)n(Cc3ccc(Cl)cc3Cl)c3cc(F)c(OC)cc23)ccn1` [Compound 92, 2-(1-(2,4-dichlorobenzyl)-6-fluoro-5-methoxy-2-methyl-1H-indol-3-yl)-N-(2-methoxypyridin-4-yl)-2-oxoacetamide], the IC50 in assay [1] and in assay [2] was less than 100 nM throughout.
As for `COc1ccc2c(c1)c(C(=O)C(=O)Nc1ccnc(OC)c1)c(C)n2Cc1ncccn1` [Compound 83, 2-(5-methoxy-2-methyl-1-(pyrimidin-2-ylmethyl)-1H-indol-3-yl)-N-(2-methoxypyridin-4-yl)-2-oxoacetamide], the IC50 in assay [1] and in assay [2] was 1000 to 10000 nM in each case.
On to `COc1ccc2c(c1)c(C(=O)C(=O)Nc1ccnc(OC)c1)c(C)n2Cc1ncc(Cl)cc1Cl` [Compound 82, 2-(1-((3,5-dichloropyridin-2-yl)methyl)-5-methoxy-2-methyl-1H-indol-3-yl)-N-(2-methoxypyridin-4-yl)-2-oxoacetamide], for which the IC50 in assay [1] and in assay [2] was less than 100 nM in each case.
For `COc1cc(NC(=O)C(=O)c2c(C)n(Cc3ccc(Cl)cc3)c3cc(OC)c(Cl)cc23)ccn1` [Compound 80, 2-(5-chloro-1-(4-chlorobenzyl)-6-methoxy-2-methyl-1H-indol-3-yl)-N-(2-methoxypyridin-4-yl)-2-oxoacetamide], the IC50 in assay [1] and in assay [2] was less than 100 nM in each case.
Consider `COc1cc(NC(=O)C(=O)c2c(C)n(Cc3ccc(Cl)cc3)c3cc(F)c(C)cc23)ccn1` [Compound 89, 2-(1-(4-chlorobenzyl)-6-fluoro-2,5-dimethyl-1H-indol-3-yl)-N-(2-methoxypyridin-4-yl)-2-oxoacetamide], for which the IC50 in assay [1] and in assay [2] was less than 100 nM each time.
In the case of `COc1cc(NC(=O)C(=O)c2c(C)n(Cc3ccc(F)cn3)c3ccc(C)cc23)ccn1` [Compound 85, 2-(1-((5-fluoropyridin-2-yl)methyl)-2,5-dimethyl-1H-indol-3-yl)-N-(2-methoxypyridin-4-yl)-2-oxoacetamide], the IC50 in assay [1] and in assay [2] was less than 100 nM in each case.
Regarding `COc1ccc2c(c1)c(C(=O)C(=O)Nc1ccnc(OC)c1)c(C)n2Cc1ccc(Cl)nn1` [Compound 86, 2-(1-((6-chloropyridazin-3-yl)methyl)-5-methoxy-2-methyl-1H-indol-3-yl)-N-(2-methoxypyridin-4-yl)-2-oxoacetamide], the IC50 in assay [1] and in assay [2] was less than 100 nM each time.
Take `COc1cc(NC(=O)C(=O)c2c(C)n(Cc3ccc(Cl)cc3)c3ccc(C(=O)O)cc23)ccn1` [Compound 4, 1-(4-chlorobenzyl)-3-(2-(2-methoxypyridin-4-ylamino)-2-oxoacetyl)-2-methyl-1H-indole-5-carboxylic acid]: the IC50 in assay [1] and in assay [2] was 1000 to 10000 nM throughout.
Consider `COc1cc(NC(=O)C(=O)c2c(C)n(Cc3ccc(Cl)cc3)c3cc(Cl)c(C)cc23)ccn1` [Compound 93, 2-(6-chloro-1-(4-chlorobenzyl)-2,5-dimethyl-1H-indol-3-yl)-N-(2-methoxypyridin-4-yl)-2-oxoacetamide], for which the IC50 in assay [1] and in assay [2] was less than 100 nM throughout.
For the molecule `COc1ccc2c(c1)c(C(=O)C(=O)Nc1ccnc(OC)c1)c(C)n2Cc1ncc(F)cc1F` [Compound 81, 2-(1-((3,5-difluoropyridin-2-yl)methyl)-5-methoxy-2-methyl-1H-indol-3-yl)-N-(2-methoxypyridin-4-yl)-2-oxoacetamide], the IC50 in assay [1] and in assay [2] was less than 100 nM throughout.
As for `COc1cc(NC(=O)C(=O)c2c(C)n(Cc3ccc(Cl)cc3)c3cccnc23)ccn1` [Compound 3, 2-(1-(4-chlorobenzyl)-2-methyl-1H-pyrrolo[3,2-b]pyridin-3-yl)-N-(2-methoxypyridin-4-yl)-2-oxoacetamide], the IC50 in assay [1] and in assay [2] was less than 100 nM throughout.
As for `COc1ccc2c(c1)c(C(=O)C(=O)Nc1ccnc(OC)c1)c(C)n2Cc1ncc(Cl)cc1F` [Compound 87, 2-(1-((5-chloro-3-fluoropyridin-2-yl)methyl)-5-methoxy-2-methyl-1H-indol-3-yl)-N-(2-methoxypyridin-4-yl)-2-oxoacetamide], the IC50 in assay [1] and in assay [2] was less than 100 nM each time.
For `COc1ccc2c(c1)c(C(=O)C(=O)Nc1ccnc(OC)c1)c(C)n2Cc1ccc(C)cn1` [Compound 84, 2-(5-methoxy-2-methyl-1-((5-methylpyridin-2-yl)methyl)-1H-indol-3-yl)-N-(2-methoxypyridin-4-yl)-2-oxoacetamide], the IC50 in assay [1] and in assay [2] was less than 100 nM throughout.
Turning to `COc1cc(NC(=O)C(=O)c2c(C)n(Cc3ccc(Cl)cn3)c3cc(F)c(C)cc23)ccn1` [Compound 90, 2-(1-((5-chloropyridin-2-yl)methyl)-6-fluoro-2,5-dimethyl-1H-indol-3-yl)-N-(2-methoxypyridin-4-yl)-2-oxoacetamide], the IC50 in assay [1] and in assay [2] was less than 100 nM throughout.
For `COc1cc(NC(=O)C(=O)c2c(C)n(Cc3ccc(Cl)cn3)c3cc(Cl)c(C)cc23)ccn1` [Compound 94, 2-(6-chloro-1-((5-chloropyridin-2-yl)methyl)-2,5-dimethyl-1H-indol-3-yl)-N-(2-methoxypyridin-4-yl)-2-oxoacetamide], the IC50 in assay [1] and in assay [2] was less than 100 nM throughout.
On to `COc1ccc2c(c1)c(C(=O)C(=O)Nc1ccnc(OC)c1)c(C)n2Cc1ccc(Cl)cn1` [Compound 79, 2-(1-((5-chloropyridin-2-yl)methyl)-5-methoxy-2-methyl-1H-indol-3-yl)-N-(2-methoxypyridin-4-yl)-2-oxoacetamide], for which the IC50 in assay [1] and in assay [2] was less than 100 nM in each case.
In the case of `COc1cc(NC(=O)C(=O)c2c(C)n(Cc3ccc(Cl)cc3F)c3cc(F)c(OC)cc23)ccn1` [Compound 91, 2-(1-(4-chloro-2-fluorobenzyl)-6-fluoro-5-methoxy-2-methyl-1H-indol-3-yl)-N-(2-methoxypyridin-4-yl)-2-oxoacetamide], the IC50 in assay [1] and in assay [2] was less than 100 nM each time.
`COc1ccc2c(c1)c(C(=O)C(=O)Nc1ccnc(OC)c1)c(C)n2Cc1cccnc1` [Compound 78, 2-(5-methoxy-2-methyl-1-(pyridin-3-ylmethyl)-1H-indol-3-yl)-N-(2-methoxypyridin-4-yl)-2-oxoacetamide]: the IC50 in assay [1] and in assay [2] was 100 to 1000 nM in each case.
